# In patent US20240228488A1 (TAKEDA PHARMACEUTICAL COMPANY LIMITED, priority 2021, published 2024):
# Target: human activated kallikrein enzyme (Homo sapiens, UniProt P03952)
# Experiment: Plasma kallikrein inhibition, fluorogenic PFR-AMC substrate, 500 pM activated kallikrein format
# Assay type: biochemical
# Conditions: 500 pM activated kallikrein, 300 uM PFR-AMC, 30 min preincubation, 10 min reaction; read-out: Primary Dose Response Assay: Average EC50
# Procedure, shortened: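 Enzyme at 500 pM preincubated 30 min RT with inhibitors in 20 mM Tris pH 7.5, 1 mM EDTA, 150 mM NaCl, 0.1% PEG-400, 0.1% Triton X-100. Reaction started with 300 uM PFR-AMC, run 10 min RT; fluorescence read at 460 nm emission, 380 nm excitation. EC50 reported in ranges.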
# human activated kallikrein enzyme, sequence (P03952 391-638 limits assumed): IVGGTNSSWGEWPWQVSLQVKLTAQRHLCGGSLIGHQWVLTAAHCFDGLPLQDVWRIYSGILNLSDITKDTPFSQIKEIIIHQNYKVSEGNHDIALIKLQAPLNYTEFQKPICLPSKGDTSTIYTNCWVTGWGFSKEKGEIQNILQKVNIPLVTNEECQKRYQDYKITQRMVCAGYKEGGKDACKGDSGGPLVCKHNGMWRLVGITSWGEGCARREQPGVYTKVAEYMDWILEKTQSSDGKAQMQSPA
# human activated kallikrein enzyme, sequence (P03952 20-390 partner limits assumed): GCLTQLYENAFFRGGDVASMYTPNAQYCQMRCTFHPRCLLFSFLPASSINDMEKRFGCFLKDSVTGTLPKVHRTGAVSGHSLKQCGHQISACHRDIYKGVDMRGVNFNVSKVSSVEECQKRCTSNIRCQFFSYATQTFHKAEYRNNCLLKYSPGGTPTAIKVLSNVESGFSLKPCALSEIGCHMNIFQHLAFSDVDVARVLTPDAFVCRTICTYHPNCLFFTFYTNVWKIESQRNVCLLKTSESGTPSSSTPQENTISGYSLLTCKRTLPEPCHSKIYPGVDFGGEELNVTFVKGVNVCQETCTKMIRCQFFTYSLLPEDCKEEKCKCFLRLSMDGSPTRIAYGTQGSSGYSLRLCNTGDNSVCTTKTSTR
row,Structure (SMILES),EC50 [nM]
1,"N#CC1(c2cccc(Cl)c2)CC1C(=O)Nc1cc(NCc2cn3cc(C4CC4)ccc3n2)ncn1 (centres unmarked) [Example 349, 2-(3-chlorophenyl)-2-cyano-N-(6-(((6-cyclopropylimidazo[1,2-a]pyridin-2-yl)methyl)amino)pyrimidin-4-yl)cyclopropane-1-carboxamide]",> 6000
2,"COc1ccc(Cl)cc1[C@H]1C[C@@H]1C(=O)Nc1cc(NCc2cn3cc(C4CC4)ccc3n2)ncn1 (racemic) [Example 47, rac-(1S*,2S*)-2-(5-chloro-2-methoxyphenyl)-N-(6-(((6-cyclopropylimidazo[1,2-a]pyridin-2-yl)methyl)amino)pyrimidin-4-yl)cyclopropane-1-carboxamide]",100 to 1000
3,"O=C(Nc1cc2c(cn1)OCCN2Cc1cn2cc(C3CC3)ccc2n1)[C@H]1C[C@@H]1c1cccc(Cl)c1 [Example 597, (1S,2S)-2-(3-chlorophenyl)-N-(1-((6-cyclopropylimidazo[1,2-a]pyridin-2-yl)methyl)-2,3-dihydro-1H-pyrido[3,4-b][1,4]oxazin-7-yl)cyclopropane-1-carboxamide]",1 to 10
4,"Cc1cc(NC(=O)[C@H]2C[C@@H]2c2nccc(C)n2)nc(N[C@H](C)c2cn3cc(C4CC4)cc(N4CC(=O)N(C)C4=O)c3n2)n1 [Example 440, (1S,2S)-N-(2-(((R)-1-(6-cyclopropyl-8-(3-methyl-2,4-dioxoimidazolidin-1-yl)imidazo[1,2-a]pyridin-2-yl)ethyl)amino)-6-methylpyrimidin-4-yl)-2-(4-methylpyrimidin-2-yl)cyclopropane-1-carboxamide]",< 1
5,"Cc1ccnc([C@H]2C[C@@H]2C(=O)Nc2cc(N[C@H](C)c3cn4cc(C5CC5)cc(N=S(C)(C)=O)c4n3)ncn2)n1 [Example 422, (1S,2S)-N-(6-(((R)-1-(6-cyclopropyl-8-((dimethyl(oxo)-16-sulfaneylidene)amino)imidazo[1,2-a]pyridin-2-yl)ethyl)amino)pyrimidin-4-yl)-2-(4-methylpyrimidin-2-yl)cyclopropane-1-carboxamide]",< 1
6,"O=C(Nc1cc2c(cn1)ncn2Cc1cn2cc(C3CC3)ccc2n1)[C@H]1C[C@@H]1c1cccc(Cl)c1 (racemic) [Example 594, rac-(1S*,2S*)-2-(3-chlorophenyl)-N-(1-((6-cyclopropylimidazo[1,2-a]pyridin-2-yl)methyl)-1H-imidazo[4,5-c]pyridin-6-yl)cyclopropane-1-carboxamide]",10 to 100
7,"N#Cc1cc(C2CC2)cn2cc(COc3ccnc(NC(=O)[C@H]4C[C@@H]4c4cccc(Cl)c4)c3)nc12 (racemic) [Example 567, rac-(1S*,2S*)-2-(3-chlorophenyl)-N-(4-((8-cyano-6-cyclopropylimidazo[1,2-a]pyridin-2-yl)methoxy)pyridin-2-yl)cyclopropane-1-carboxamide]",10 to 100
8,"Cc1ccnc([C@H]2C[C@@H]2C(=O)Nc2cn3c(Cc4cn5cc(C6CC6)cc(N6CC(=O)N(C)C6=O)c5n4)nnc3cn2)n1 [Example 630, (1S,2S)—N-(3-((6-cyclopropyl-8-(3-methyl-2,4-dioxoimidazolidin-1-yl)imidazo[1,2-a]pyridin-2-yl)methyl)-[1,2,4]triazolo[4,3-a]pyrazin-6-yl)-2-(4-methylpyrimidin-2-yl)cyclopropane-1-carboxamide]",1 to 10
9,"Cc1ccnc([C@H]2C[C@@H]2C(=O)Nc2cc(N[C@@H](C)c3cn4cc(C(F)F)cc(N5CC(=O)N(C)C5=O)c4n3)nc(C)n2)n1 [Example 427, (1S,2S)-N-(6-(((S)-1-(6-(difluoromethyl)-8-(3-methyl-2,4-dioxoimidazolidin-1-yl)imidazo[1,2-a]pyridin-2-yl)ethyl)amino)-2-methylpyrimidin-4-yl)-2-(4-methylpyrimidin-2-yl)cyclopropane-1-carboxamide]",10 to 100
10,"O=C(Nc1cc(N2CC[C@H](O)[C@H]2c2cn3cc(C4CC4)ccc3n2)ncn1)[C@H]1C[C@@H]1c1cccc(Cl)c1 [Example 484, (1S,2S)-2-(3-chlorophenyl)-N-(6-((2R,3S)-2-(6-cyclopropylimidazo[1,2-a]pyridin-2-yl)-3-hydroxypyrrolidin-1-yl)pyrimidin-4-yl)cyclopropane-1-carboxamide]",> 6000
11,"Cc1ccnc([C@H]2C[C@@H]2C(=O)Nc2cc(N[C@H](C)c3cn4cc(C5(F)CC5)cc(N5CC(=O)N(C)C5=O)c4n3)nc(C)n2)n1 [Example 436, (1S,2S)-N-(6-(((R)-1-(6-(1-fluorocyclopropyl)-8-(3-methyl-2,4-dioxoimidazolidin-1-yl)imidazo[1,2-a]pyridin-2-yl)ethyl)amino)-2-methylpyrimidin-4-yl)-2-(4-methylpyrimidin-2-yl)cyclopropane-1-carboxamide]",< 1
12,"COc1cc([C@H]2C[C@@H]2C(=O)Nc2cc(NCc3cn4cc(C5CC5)ccc4n3)ncn2)cc(N)n1 (racemic) [Example 277, rac-(1S*,2S*)-2-(2-amino-6-methoxypyridin-4-yl)-N-(6-(((6-cyclopropylimidazo[1,2-a]pyridin-2-yl)methyl)amino)pyrimidin-4-yl)cyclopropane-1-carboxamide]",100 to 1000
13,"Cc1ccnc([C@H]2C[C@@H]2C(=O)Nc2cc(N(CC(=O)O)Cc3cn4cc(C5CC5)cc(N5CC(=O)N(C)C5=O)c4n3)ncn2)n1 [Example 461, N-((6-cyclopropyl-8-(3-methyl-2,4-dioxoimidazolidin-1-yl)imidazo[1,2-a]pyridin-2-yl)methyl)-N-(6-((1S,2S)-2-(4-methylpyrimidin-2-yl)cyclopropane-1-carboxamido)pyrimidin-4-yl)glycine]",1 to 10
14,"Cc1ccnc([C@H]2C[C@@H]2C(=O)Nc2cc(N[C@H](C)c3cn4cc(C5CC5)cc(N5CC(=O)N(C)C5=O)c4n3)nc(CO)n2)n1 [Example 469, (1S,2S)-N-(6-(((R)-1-(6-cyclopropyl-8-(3-methyl-2,4-dioxoimidazolidin-1-yl)imidazo[1,2-a]pyridin-2-yl)ethyl)amino)-2-(hydroxymethyl)pyrimidin-4-yl)-2-(4-methylpyrimidin-2-yl)cyclopropane-1-carboxamide]",< 1
15,"O=C(Nc1cc(NCc2nc3ccc(C4CC4)cn3c2Cl)ncn1)[C@H]1C[C@@H]1c1cccc(Cl)c1 (racemic) [Example 69, rac-(1S*,2S*)-N-(6-(((3-chloro-6-cyclopropylimidazo[1,2-α]pyridin-2-yl)methyl)amino)pyrimidin-4-yl)-2-(3-chlorophenyl)cyclopropane-1-carboxamide]",1000 to 6000
16,"Cc1ccnc([C@H]2C[C@@H]2C(=O)Nc2cc(N[C@H](C)c3cn4cc(C5CC5)cc(N5C(=O)N(C)C(=O)C56COC6)c4n3)ncn2)n1 [Example 420, (1S,2S)-N-(6-(((R)-1-(6-cyclopropyl-8-(7-methyl-6,8-dioxo-2-oxa-5,7-diazaspiro[3.4]octan-5-yl)imidazo[1,2-a]pyridin-2-yl)ethyl)amino)pyrimidin-4-yl)-2-(4-methylpyrimidin-2-yl)cyclopropane-1-carboxamide]",< 1

# Next, values leading:
row,EC50 [nM],Structure (SMILES)
1,< 1,"CCOC(=O)Cc1cc(C2CC2)cn2cc(CNc3ccnc(NC(=O)[C@H]4C[C@@H]4c4cccc(Cl)c4)c3)nc12 [Example I-241, ethyl 2-(2-(((2-((1S,2S)-2-(3-chlorophenyl)cyclopropane-1-carboxamido)pyridin-4-yl)amino)methyl)-6-cyclopropylimidazo[1,2-a]pyridin-8-yl)acetate]"
2,100 to 1000,"CC(=O)OC(Cc1cn2cc(C3CC3)cc(N3CC(=O)N(C)C3=O)c2n1)c1cc(NC(=O)[C@H]2C[C@@H]2c2nccc(C)n2)nc(C)n1 (stereo partly drawn) [Example 673, 2-(6-cyclopropyl-8-(3-methyl-2,4-dioxoimidazolidin-1-yl)imidazo[1,2-a]pyridin-2-yl)-1-(2-methyl-6-((1S,2S)-2-(4-methylpyrimidin-2-yl)cyclopropane-1-carboxamido)pyrimidin-4-yl)ethyl acetate]"
3,> 6000,"Cc1ccnc([C@H]2C[C@@H]2C(=O)Nc2cccc(S(=O)(=O)Cc3cn4cc(C5CC5)cc(N5CC(=O)N(C)C5=O)c4n3)c2)n1 [Example I-646, (1S,2S)—N-(3-(((6-cyclopropyl-8-(3-methyl-2,4-dioxoimidazolidin-1-yl)imidazo[1,2-a]pyridin-2-yl)methyl)sulfonyl)phenyl)-2-(4-methylpyrimidin-2-yl)cyclopropane-1-carboxamide]"
4,< 1,"Cc1ccnc([C@H]2C[C@@H]2C(=O)Nc2nncc(OCc3cn4cc(C5CC5)cc(N5CC(=O)N(C)C5=O)c4n3)n2)n1 [Example 671, (1S,2S)—N-(5-((6-cyclopropyl-8-(3-methyl-2,4-dioxoimidazolidin-1-yl)imidazo[1,2-a]pyridin-2-yl)methoxy)-1,2,4-triazin-3-yl)-2-(4-methylpyrimidin-2-yl)cyclopropane-1-carboxamide]"
5,< 1,"Cc1ccnc([C@H]2C[C@@H]2C(=O)Nc2ccc(F)c(NCc3cn4cc(C5CC5)cc(N5CC(=O)N(C)C5=O)c4n3)c2)n1 [Example 656, (1S,2S)—N-(3-(((6-cyclopropyl-8-(3-methyl-2,4-dioxoimidazolidin-1-yl)imidazo[1,2-a]pyridin-2-yl)methyl)amino)-4-fluorophenyl)-2-(4-methylpyrimidin-2-yl)cyclopropane-1-carboxamide]"
6,1 to 10,"Cc1ccnc([C@H]2C[C@@H]2C(=O)Nc2cc(O)cc(OCc3cn4cc(C5CC5)cc(N5CC(=O)N(C)C5=O)c4n3)n2)n1 [Example 661, (1S,2S)—N-(6-((6-cyclopropyl-8-(3-methyl-2,4-dioxoimidazolidin-1-yl)imidazo[1,2-a]pyridin-2-yl)methoxy)-4-hydroxypyridin-2-yl)-2-(4-methylpyrimidin-2-yl)cyclopropane-1-carboxamide]"
7,< 1,"Cc1ccnc([C@H]2C[C@@H]2C(=O)Nc2cc(F)cc(OCc3cn4cc(C5CC5)cc(N5CC(=O)N(C)C5=O)c4n3)n2)n1 [Example 675, (1S,2S)—N-(6-((6-cyclopropyl-8-(3-methyl-2,4-dioxoimidazolidin-1-yl)imidazo[1,2-a]pyridin-2-yl)methoxy)-4-fluoropyridin-2-yl)-2-(4-methylpyrimidin-2-yl)cyclopropane-1-carboxamide]"
